# Source: US5132111A (priority 1990, dated 1992)
# Non-standard residues stand in square brackets, D forms with d. Residues, ends and D or L forms follow the SMILES beside them. hArg = N=C(N)NCCCC[C@H](N)C(=O)O; Nle = CCCC[C@H](N)C(=O)O
# Test system: secretion of ACTH and β-END-LI
Compound,secretion of ACTH (inhibition),secretion of β-END-LI (inhibition)
"H-DLTFELLREVLEVARAEQLAQQAHSNRRLMEII-NH2 [[Glu^13, Val^21, Arg^36]-rCRF (9-41)]",inhibits,inhibits
"CCCC[C@H](NC(=O)[C@H](CCC(=O)O)NC(=O)[C@H](CC(C)C)NC(=O)[C@H](CCCC)NC(=O)[C@H](CCC(=O)O)NC(=O)[C@H](CCCNC(=N)N)NC(=O)[C@H](CC(C)C)NC(=O)[C@H](CC(C)C)NC(=O)[C@H](Cc1c[nH]cn1)NC(=O)[C@H](Cc1ccccc1)NC(=O)[C@@H](NC(=O)[C@H](CC(C)C)NC(=O)[C@H](CC(=O)O)NC(=O)[C@@H](N)CC(C)C)[C@@H](C)O)C(=O)N[C@@H](C)C(=O)N[C@@H](CCCNC(=N)N)C(=O)N[C@@H](C)C(=O)N[C@@H](CCC(=O)O)C(=O)N[C@@H](CCC(N)=O)C(=O)N[C@@H](CCC(=O)O)C(=O)N[C@@H](C)C(=O)N[C@@H](CCC(=O)O)C(=O)N[C@@H](CCC(N)=O)C(=O)N[C@@H](C)C(=O)N[C@@H](C)C(=O)N[C@@H](CC(C)C)C(=O)N[C@@H](CC(N)=O)C(=O)N[C@@H](CCCNC(=N)N)C(=O)N[C@@H](CC(C)C)C(=O)N[C@@H](CC(C)C)C(=O)N[C@@H](CC(C)C)C(=O)N[C@@H](CCC(=O)O)C(=O)N[C@@H](CCC(=O)O)C(=O)N[C@@H](C)C(N)=O [[Nle^18,21]-AAHC(8-41)] (H-LDLTFHLLRE[Nle]LE[Nle]ARAEQEAEQAALNRLLLEEA-NH2)",inhibits,inhibits
"CCCC[C@H](NC(=O)[C@H](CCC(=O)O)NC(=O)[C@H](CC(C)C)NC(=O)[C@H](CCCC)NC(=O)[C@H](CCC(=O)O)NC(=O)[C@H](CCCNC(=N)N)NC(=O)[C@H](CC(C)C)NC(=O)[C@H](CC(C)C)NC(=O)[C@H](CCC(=O)O)NC(=O)[C@H](Cc1ccccc1)NC(=O)[C@@H](NC(=O)[C@H](CC(C)C)NC(=O)[C@@H](N)CC(=O)O)[C@@H](C)O)C(=O)N[C@@H](C)C(=O)N[C@@H](CCCNC(=N)N)C(=O)N[C@@H](C)C(=O)N[C@@H](CCC(=O)O)C(=O)N[C@@H](CCC(N)=O)C(=O)N[C@@H](CCC(=O)O)C(=O)N[C@@H](C)C(=O)N[C@@H](CCC(=O)O)C(=O)N[C@@H](CCC(N)=O)C(=O)N[C@@H](C)C(=O)N[C@@H](C)C(=O)N[C@@H](CC(C)C)C(=O)N[C@@H](CC(N)=O)C(=O)N[C@@H](CCCNC(=N)N)C(=O)N[C@@H](CC(C)C)C(=O)N[C@@H](CC(C)C)C(=O)N[C@@H](CC(C)C)C(=O)N[C@@H](CCC(=O)O)C(=O)N[C@@H](CCC(=O)O)C(=O)N[C@@H](C)C(N)=O [[Glu^13,Nle^18,21]-AAHC(9-41)] (H-DLTFELLRE[Nle]LE[Nle]ARAEQEAEQAALNRLLLEEA-NH2)",inhibits,inhibits
H-IDLTFHLLRNMIEMARNENQREQAGLNRRYLDEV-NH2 [[Arg^36]-Carp Urotensin I(8-41)],inhibits,inhibits
H-DLTFHLLREVLEMARAEQLAQQAHSNRRLMEII-NH2 [[Arg^36]-rCRF (9-41)],inhibits,
"H-DLTFHLLREVAEMTRAEQLAQQAHSNRRLMEII-NH2 [[Ala^19, Thr^22, Arg^36]-hCRF (9-41)]",inhibits,inhibits
H-DLTFHLLREMLEMARAEQEAEQAALNRLLLEEA-NH2 [AAHC(9-41)],inhibits,
CCCC[C@H](N)C(=O)N[C@@H](CC(=O)O)C(=O)N[C@@H](CC(C)C)C(=O)N[C@@H](CO)C(=O)N[C@@H](Cc1ccccc1)C(=O)N[C@@H](Cc1c[nH]cn1)C(=O)N[C@@H](CC(C)C)C(=O)N[C@@H](CC(C)C)C(=O)N[C@@H](CCCNC(=N)N)C(=O)N[C@@H](CCC(=O)O)C(=O)N[C@H](C(=O)N[C@@H](CC(C)C)C(=O)N[C@@H](CCC(=O)O)C(=O)N[C@@H](CCSC)C(=O)N[C@@H](C)C(=O)N[C@@H](CCCNC(=N)N)C(=O)N[C@@H](C)C(=O)N[C@@H](CCC(=O)O)C(=O)N[C@@H](CCC(N)=O)C(=O)N[C@@H](CC(C)C)C(=O)N[C@@H](C)C(=O)N[C@@H](CCC(N)=O)C(=O)N[C@@H](CCC(N)=O)C(=O)N[C@@H](C)C(=O)N[C@@H](Cc1c[nH]cn1)C(=O)N[C@@H](CC(C)C)C(=O)N[C@@H](CC(N)=O)C(=O)N[C@@H](CCCNC(=N)N)C(=O)N[C@@H](CCCNC(=N)N)C(=O)N[C@@H](CC(C)C)C(=O)N[C@@H](CCSC)C(=O)N[C@@H](CCC(=O)O)C(=O)N[C@H](C(=O)N[C@H](C(N)=O)[C@@H](C)CC)[C@@H](C)CC)C(C)C (H-[Nle]DLSFHLLREVLEMARAEQLAQQAHLNRRLMEII-NH2),inhibits,inhibits
H-LTFHLLREVLEMARAEQLAQQAHSNRRLMEII-NH2 [[Arg^36]-rCRF(10-41)],inhibits,inhibits
H-LDLTFHLLREVLEMARAEQLAQQAHSNRRLMEII-NH2 [[Arg^36]-rCRF(8-41)],inhibits,inhibits

# Test system: cultured rat pituitary cells
# Assay type: cell-based
Compound,secretion of ACTH,secretion of β-endorphin (β-END-LI)
"H-SEEPPISLDLTFHLLREVLEMTRAEQLAEQAHSNRRLMEEI-NH2 [[Thr^22, Glu^29,40, Arg^36]-rCRF]",stimulates,stimulates
H-SQEPPISLDLTFALLREMLEMARAEQEAEQAALNRLLLEEA-NH2 [[Ala13]-AAHC],stimulates,stimulates
H-SEEPPISLDLTFHLLREVLE[Nle]A[hArg]AEQLAQQAHLNRRLMEE[Nle]-NH2,stimulates,stimulates
"H-GEEPPISLDLTFHLLREVLEMARAEQLAQQAHLNRRLMEEI-NH2 [[Gly^1, Leu^33, Glu^40]-rCRF]",stimulates,stimulates
"CCCC[C@H](NC(=O)[C@H](CCC(=O)O)NC(=O)[C@H](CC(C)C)NC(=O)[C@H](CCCC)NC(=O)[C@H](CCC(=O)O)NC(=O)[C@H](CCCNC(=N)N)NC(=O)[C@H](CC(C)C)NC(=O)[C@H](CC(C)C)NC(=O)[C@H](Cc1c[nH]cn1)NC(=O)[C@H](Cc1ccccc1)NC(=O)[C@@H](NC(=O)[C@H](CC(C)C)NC(=O)[C@H](CC(=O)O)NC(=O)[C@H](CC(C)C)NC(=O)[C@H](CO)NC(=O)[C@@H](NC(=O)[C@@H]1CCCN1C(=O)[C@H]1CCCN1C(=O)[C@H](N)Cc1ccc(O)cc1)[C@@H](C)CC)[C@@H](C)O)C(=O)N[C@@H](C)C(=O)N[C@@H](CCCNC(=N)N)C(=O)N[C@@H](C)C(=O)N[C@@H](CCC(=O)O)C(=O)N[C@@H](CCC(N)=O)C(=O)N[C@@H](CCC(=O)O)C(=O)N[C@@H](C)C(=O)N[C@@H](CCC(=O)O)C(=O)N[C@@H](CCC(N)=O)C(=O)N[C@@H](C)C(=O)N[C@@H](C)C(=O)N[C@@H](CC(C)C)C(=O)N[C@@H](CC(N)=O)C(=O)N[C@@H](CCCNC(=N)N)C(=O)N[C@@H](CC(C)C)C(=O)N[C@@H](CC(C)C)C(=O)N[C@@H](CC(C)C)C(=O)N[C@@H](CCC(=O)O)C(=O)N[C@@H](CCC(=O)O)C(=O)N[C@@H](C)C(N)=O [[D-Tyr^3, D-Pro^4, Nle^18,21]-AHC(3-41)] (H-[dY][dP]PISLDLTFHLLRE[Nle]LE[Nle]ARAEQEAEQAALNRLLLEEA-NH2)",stimulates,stimulates
H-SEEPPISLDLTFHLLREVLE[Nle]ARAEQLAQQAYLNRRL[Nle]EEI-NH2,stimulates,stimulates
"CCCC[C@H](NC(=O)[C@H](CCC(=O)O)NC(=O)[C@H](CC(C)C)NC(=O)[C@H](CCCC)NC(=O)[C@H](CCC(=O)O)NC(=O)[C@H](CCCNC(=N)N)NC(=O)[C@H](CC(C)C)NC(=O)[C@H](CC(C)C)NC(=O)[C@H](Cc1c[nH]cn1)NC(=O)[C@H](Cc1ccccc1)NC(=O)[C@@H](NC(=O)[C@H](CC(C)C)NC(=O)[C@H](CC(=O)O)NC(=O)[C@H](CC(C)C)NC(=O)[C@H](CO)NC(=O)[C@@H](N)[C@@H](C)CC)[C@@H](C)O)C(=O)N[C@@H](C)C(=O)N[C@@H](CCCNC(=N)N)C(=O)N[C@@H](C)C(=O)N[C@@H](CCC(=O)O)C(=O)N[C@@H](CCC(N)=O)C(=O)N[C@@H](CCC(=O)O)C(=O)N[C@@H](C)C(=O)N[C@@H](CCC(=O)O)C(=O)N[C@@H](CCC(N)=O)C(=O)N[C@@H](C)C(=O)N[C@@H](C)C(=O)N[C@@H](CC(C)C)C(=O)N[C@@H](CC(N)=O)C(=O)N[C@@H](CCCNC(=N)N)C(=O)N[C@@H](CCCNC(=N)N)C(=O)N[C@@H](CC(C)C)C(=O)N[C@@H](CC(C)C)C(=O)N[C@@H](CCC(=O)O)C(=O)N[C@@H](CCC(=O)O)C(=O)N[C@@H](C)C(N)=O [[Nle^18,21, Arg^36]-AAHC(6-41)] (H-ISLDLTFHLLRE[Nle]LE[Nle]ARAEQEAEQAALNRRLLEEA-NH2)",stimulates,stimulates
"H-SEEPPISLDLTFHLLREVLE[Nle]ARAEQLAEQAHSNRRL[Nle]EII-NH2 [[Nle^21,38, Glu^29, Arg^36]-rCRF]",stimulates,stimulates
H-PPISLDLTFHLLREVLEMARAEQLAQQAHLNRRLMEEI-NH2,stimulates,stimulates
"H-SQ[dY][dP]PISLDLTFHLLRE[Nle]LE[Nle]ARAEQEAEQAALNRLLLEEA-NH2 [[D-Tyr^3, D-Pro^4, Nle^18, 21]-AAHC]",stimulates,stimulates
"H-SQEPPISLDLTFHLLRE[Nle]LE[Nle]TRADQLRQQAHSNRRLLDIA-NH2 [[Nle^18,21,Arg^23,28,36]-oCRF]",stimulates,stimulates
"H-Ser-Gln-Glu-Pro-Pro-Ile-Ser-Leu-Asp-CML-Thr-Leu-Glu-Leu -Leu-Arg-Glu-Met-Leu-Glu-Met-Ala-Arg-Ala-Glu-Gln-Glu-Ala -Glu-Gln-Ala-Ala-Leu-Asn-Arg-Leu-Tyr-Leu-Glu-Glu-Ala-NH2 [[Leu^12, Glu^13, Tyr^37]-AAHC]",stimulates,stimulates
"H-SQEPPISLELTFHLLRE[Nle]LE[Nle]ARAEQEAEQAALNRLLLEEA-NH2 [[Glu^9, Nle^18, 21]-AAHC]",stimulates,stimulates
